Source: US20040072368A1, “Lipoprotein receptor” (priority 2002, published 2004)

How the values were obtained:
[1] = test system: EGF receptor; experiment: EGF receptor internalisation by flow cytometry; format: cell-based, human; settings: HepG2, 10 min pre-incubation, 10 μg/ml free-apoA-I or 100 nM ADP
Procedure: Panel 4. Internalisation of EGF receptor by HepG2 cells. Cells are pre-incubated for 10 min in serum-free medium with (J) or without (K) […] EGF, or with 10 μg/ml free-apoA-I (L), 100 nM ADP (M). The amount of EGF receptor is measured by Flow Cytometry using anti-EGF receptor antibody. As a control experiment for the efficacy of EGF receptor antibody, isotypic IgG are used (I). Results are expressed as the mean relative cell fluorescence and receptor internalisation is related to lower fluorescence.
For analysis of the cell surface EGF receptor, HepG2 cells are preincubated in medium with or without 20 nM EGF for 10 min at 37° C. For flow cytometry analysis, HepG2 and CHO cells are detached by incubation with Ca2+, Mg2+free PBS containing 2 mM EDTA, pH 7.4, fixed in 3% paraformaldehyde and pelleted in a microfuge. Cells are incubated at 20° C. for 1 h in PBS, pH 7.4 containing 1% BSA with either mouse monoclonal antibodies against the human β-subunit of ATP synthase, the human cytochrome oxidase subunit I, the human EGF receptor or against isotypic control IgG. Cells are washed in PBS/BSA 1% and incubated at 20° C. for 30 min with goat […] IgG conjugated to fluorescein isothiocyanate. After a final wash, cells are pelleted and resuspended in PBS/BSA 1% at a density of 1×10^6 cells/ml. The mean relative fluorescence after excitation at a wavelength of 488 nm is determined for each sample on a Coulter XL 4C flow cytometer and analysed with CELLQUEST software (Becton-Dickenson).

[2] = molecular target: T1, cell surface ATP synthase (Homo sapiens, UniProt P06576); experiment: Cell surface ADP generation assay (ATP hydrolysis), HPLC/TLC; format: cell-based; settings: 10 μg/ml apoA-I, 10 min at 37° C., HepG2
T1 construct: endogenous in cells; host or cells: HepG2
T1 sequence (P06576 48-529): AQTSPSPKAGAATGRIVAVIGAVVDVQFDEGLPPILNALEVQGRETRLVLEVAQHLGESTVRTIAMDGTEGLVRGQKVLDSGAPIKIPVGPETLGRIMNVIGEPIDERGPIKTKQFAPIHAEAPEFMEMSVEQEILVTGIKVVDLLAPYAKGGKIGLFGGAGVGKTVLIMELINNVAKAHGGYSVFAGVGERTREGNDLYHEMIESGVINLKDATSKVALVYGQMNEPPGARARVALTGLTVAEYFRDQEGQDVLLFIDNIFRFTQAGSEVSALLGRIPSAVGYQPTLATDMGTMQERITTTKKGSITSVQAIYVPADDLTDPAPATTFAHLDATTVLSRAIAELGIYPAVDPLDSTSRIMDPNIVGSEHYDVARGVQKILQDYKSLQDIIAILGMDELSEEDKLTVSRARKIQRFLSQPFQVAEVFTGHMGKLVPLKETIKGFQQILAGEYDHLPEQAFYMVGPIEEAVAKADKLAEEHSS
T1 sequence (P25705 44-553 partner): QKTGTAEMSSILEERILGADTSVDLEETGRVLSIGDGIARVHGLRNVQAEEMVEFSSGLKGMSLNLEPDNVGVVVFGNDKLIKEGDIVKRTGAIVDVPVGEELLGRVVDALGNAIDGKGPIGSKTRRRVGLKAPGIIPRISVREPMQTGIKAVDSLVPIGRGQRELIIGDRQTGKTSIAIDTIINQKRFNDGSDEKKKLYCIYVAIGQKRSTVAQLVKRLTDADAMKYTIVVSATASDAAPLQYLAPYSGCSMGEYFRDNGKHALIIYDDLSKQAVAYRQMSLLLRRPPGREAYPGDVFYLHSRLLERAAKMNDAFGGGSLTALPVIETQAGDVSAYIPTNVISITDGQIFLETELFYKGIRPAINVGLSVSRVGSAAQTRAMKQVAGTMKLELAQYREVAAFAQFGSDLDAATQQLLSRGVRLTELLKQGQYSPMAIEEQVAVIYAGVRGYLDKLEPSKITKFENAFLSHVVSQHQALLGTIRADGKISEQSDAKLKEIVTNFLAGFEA
T1 sequence (P36542 26-298 partner): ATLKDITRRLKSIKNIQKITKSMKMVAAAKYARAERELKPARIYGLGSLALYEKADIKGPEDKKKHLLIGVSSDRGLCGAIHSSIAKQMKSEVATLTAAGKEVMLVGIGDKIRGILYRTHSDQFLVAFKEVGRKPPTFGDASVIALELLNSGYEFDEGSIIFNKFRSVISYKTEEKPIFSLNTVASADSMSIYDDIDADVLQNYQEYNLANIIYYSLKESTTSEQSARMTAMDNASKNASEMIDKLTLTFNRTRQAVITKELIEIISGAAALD
T1 sequence (P30049 23-168 partner): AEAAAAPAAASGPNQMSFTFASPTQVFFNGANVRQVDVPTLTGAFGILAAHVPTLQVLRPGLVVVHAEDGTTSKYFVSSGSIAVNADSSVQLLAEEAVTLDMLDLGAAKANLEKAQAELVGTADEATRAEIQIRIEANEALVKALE
T1 sequence (P56381 2-51 partner limits assumed): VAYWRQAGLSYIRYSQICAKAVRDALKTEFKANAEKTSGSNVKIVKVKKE
Procedure: ^32Pi and ADP (panels A and B) or [α-32P] ATP (panels C, D, E and F) are added to the HepG2 cell medium as described in Experimental Procedures, and the cells are incubated for 10 min at 37° C. with 10 μg/ml apoA-I (panels B and D), 100 nM IF1 (panel E), or both IF1 […] and apoA-I at the same concentrations as above (panel F). Control experiments are performed with neither apo AI nor IF1 added into the cell medium (panel A and C). Supernatants are recovered and analysed by HPLCs.
Confluent HepG2 in 6-well plates are washed in DMEM, then incubated at 37° C. for 10 min in DMEM pH 6.6 with 0.1 μCi [α-32P] ATP for ADP generation assay, or with 0.1 μCi 32Pi and ADP (100 nM final) for ATP generation assay. Depending on the experiment, IF1 (100 nM final) or apoA-I (10 μg/ml final) are added in the reaction mixture. Supernatants are removed and analysed using two different systems: 1) by HPLC coupled to a radioactivity detector on a Whatman Partisphere 5 SAX column (Whatman International Ltd., UK) as described previously (13); calibration is done with radiolabelled nucleotides. 2) by thin layer chromatography in the solvent NaCl 2.4%/NH4OH/H2O/MeOH (12.5/15/27.5/50, v/v); radioactive spots are counted by liquid scintillation.

[3] = test system: HepG2 cells; experiment: LDL internalisation assay; format: cell-based, human; settings: 10 μg/ml free-apoA-I or 100 nM ADP, 10 min at 37° C.
Procedure: Panel 1, 2 and 3. TG-HDL2 and LDL internalization by HepG2 cells. Cells are incubated for 10 min at 37° C. with 75 μg/ml of ^125I-TG-HDL2 (panels 1 and 3), TG-HDL2 labelled with ^3H-cholesteryl ester (panel 1 “chol”) or ^1251-LDL (panel 2). Alternatively, 10 μg/ml free-apoA-I (A, G), 100 nM ADP (B, H), both free-apoA-I and ADP at the same concentrations as above (C), 100 nM ATP (D), 0.2 U/ml apyrase (E), 100 nM EGF (F), or increasing concentrations of 2MeS-ADP (▪) and ATPγS (□) (panel 3) are added to the incubation medium. Results are expressed as the percentage of stimulation related to the value of internalisation obtained without addition of any compound (corresponding to a value of 400 ng TG-HDL2/mg of cell protein). The same experiments are performed on IHH cells with similar results (data not shown).
Cells are washed three times and pre-incubated for 30 min at 37° C. in serum free DMEM. ^125I triglyceride rich-HDL2 (75 μg/ml) are added on the cells and incubated at 37° C. for various time. […] The radioactivity internalised into the cells and the protein content is determined as in the competition assays. Non-specific internalisation is analysed in the presence of an excess of 600 μg/ml of HDL3. Results are expressed as the percentage of stimulation related to the value of internalisation obtained without addition of any compound. […]

Substance: free-apoA-I: major apoprotein of HDL, single polypeptide chain of 243 amino acid residues, isolated from HDL3 by ion-exchange chromatography
- number of EGF-R at the cell surface [1]: neither free apoA-I (FIG. 6-4L) nor ADP (FIG. 6-4M) are able to reduce
- increase of [α32P]-ADP generated from [α-32P]-ATP [2]: up to 79%
- stimulation of endocytosis of 125I-labeled LDL [3]: no stimulation
